One assay has as its system BT-20. Nature of the assay: Confocal laser scanning microscopy apoptosis, BT-20. The note with it: 100 nM, 48 hours. Format: cell-based, human. The protocol:
Confocal Laser Scanning Microscopy. Cells were treated with cinchona alkaloids or PBS in culture medium for 48 hours. After 48 hr of culture, cells were co-stained with a rabbit polyclonal antitubulin antibody (Green Fluorescence) and the DNA-specific dye Toto-3 (Blue Fluorescence) and examined by laser scanning confocal microscopy using a Bio-Rad MRC-1024 Laser Scanning Confocal Microscope equipped with a Kr/Ar laser (Bio-Rad, Hercules, Calif., USA) mounted on a Nikon Eclipse E800 upright microscope with high numerical aperture objectives (Nikon, Melville, N.Y., USA), as described (F. M. Uckun, et al., 2010, Proc. Natl. Acad. Sci. USA, 107: 2902-7; F. M. Uckun., et al., 2010, British Journal of Haematology, 149: 508-17; F. M. Uckun, et al., 2013, Blood. 121:4348-54; F. M. Uckun et al., 2010, Proc. Natl Acad. Sci. USA 107:16852-57; F. M. Uckun et al., 2012, Proc. Natl Acad. Sci. USA 109:18072-77). Cell lines. BT-20 (ATCC HTB-19), a triple negative breast cancer cell line, PC-3 (ATCC CRL-1435) a CRPC cell line (small cell endocrine carcinoma) derived from a Stage IV prostate cancer patient with bone metastases were obtained from American Type Culture Collection (ATCC) (Manassas, Va.). […] Cells were washed in PBS and counterstained with the DNA-specific dye TOTO-3 (blue fluorescence) (Molecular Probes Inc., Eugene, Oreg.) for 10 min at a dilution of 1:1000. […]

Assay [1] deals with M24-MET human melanoma cells. Description: CB.17 SCID mouse xenograft model of human malignant melanoma. It counts as in vivo. The conditions noted are these: 5 mg/kg i.p. twice daily, 5 days on 2 days off. The protocol: Cell Lines. Human melanoma cell line M24-MET (ATCC CRL-12270) was obtained from American Type Culture Collection (Rockville, Md.) and maintained as a continuous cell line in DMEM supplemented with 10% fetal calf serum (FCS), 4 mm glutamine, 100 units/ml penicillin G, and […] streptomycin sulfate. All of the tissue culture reagents were obtained from Life Technologies, Inc. Inc. (Gaithersburg, Md.).
Mice. Female CB.17 SCID mice were obtained from Taconic (Germantown, N.Y.) and housed in a specific-pathogen-free room located in a secure indoor facility with controlled temperature, humidity, and noise levels. Mice were housed in micro-isolator cages and fed with autoclaved rodent chow. Water was also autoclaved and supplemented with trimethoprim/sulfamethoxazol 3 days a week. […]
SCID Mouse Model of Human Malignant Melanoma. […] The size of subcutaneous tumors were measured on day 14 and day 16 to evaluate the ability of AP-1 to inhibit tumor growth in this SCID mouse xenograft model of melanoma. Tumor volumes were calculated using the formula for the volume of a prolate spheroid, V=4/3×3.14×length/2×width/2×depth/2.
On the technique in general: Xenograft models place foreign cells or tissue in a host animal.

“Also recorded” adds a separate entry of the source.

With “2,4,6-Tri (9-O-dihydrocinchoninyl)pyrimidine [AP-5]”, the “signs of apoptosis by confocal imaging” value in the assay with BT-20 is on record as “virtually all of the BT-20 or PC-3 cells treated with AP-5 showed signs of advanced apoptosis; also recorded: virtually all of the BT-20 cells treated with AP-5 showed signs of advanced apoptosis”.
Regarding `C=CC1CN2CCC1CC2C(Oc1cc(OC(c2ccnc3ccccc23)C2CC3CCN2CC3C=C)nc(OC(c2ccnc3ccccc23)C2CC3CCN2CC3C=C)n1)c1ccnc2ccccc12` (stereo not drawn) [AP-1, 2,4,6-Tri(9-O-cinchoninyl)pyrimidine], the tumor progression result in assay [1] is “significantly slowed down the tumor progression”. The compound further displayed an average tumor volume in assay [1] (day 16, from day 7) of 484.3±76.5 mm3.

Source of the values: patent US11066421B1, “Synthetic cinchona alkaloids against cancer” (Ares Pharmaceuticals, LLC, priority 2021, dated 2021).
